Laboratory results taken from patent publication US11357230B2, “Herbicidal amides” (FMC Corporation, priority 2017, dated 2022).

Experiments:
Type in all cases: in vivo
[1] = tested on: barnyardgrass (Echinochloa crus-galli); experiment: Test A postemergence, barnyardgrass; settings: approximately 10 d
Text: (§1) Seeds of plant species selected from barnyardgrass (Echinochloa crus-galli), kochia (Kochia scoparia), ragweed (common ragweed, Ambrosia elatior), ryegrass, Italian (Italian ryegrass, Lolium multiflorum), foxtail, green (green foxtail, Setaria viridis), and pigweed (Amaranthus retroflexus) were planted into a blend of loam soil and sand and treated preemergence with a directed soil spray using test chemicals formulated in a non-phytotoxic solvent mixture which included a surfactant. At the same time, plants selected from these weed species and also wheat (Triticum aestivum), corn (Zea mays), blackgrass (Alopecurus myosuroides), and galium (catchweed bedstraw, Galium aparine) were planted in pots containing the same blend of loam soil and sand and treated with postemergence applications of test chemicals formulated in the same manner. Plants ranged in height from 2 to 10 cm and were in the one- to two-leaf stage for the postemergence treatment. Treated plants and untreated controls were maintained in a greenhouse for approximately 10 d, after which time all treated plants were compared to untreated controls and visually evaluated for injury. Plant response ratings, summarized in Table A, are based on a 0 to 100 scale where 0 is no effect and 100 is complete control. A dash (-) response means no test result.

[2] = tested on: blackgrass (Alopecurus myosuroides); experiment: Test A postemergence, blackgrass; settings: approximately 10 d
Text: as §1

corn (Zea mays) = experiment: Test A postemergence, corn; settings: approximately 10 d
Text: as §1

Foxtail, Giant [3] = experiment: Test A postemergence, giant foxtail; settings: approximately 10 d
[4] = tested on: galium (catchweed bedstraw, Galium aparine); experiment: Test A postemergence, galium; settings: approximately 10 d
Text: as §1

kochia (Kochia scoparia) [5] = experiment: Test A postemergence, kochia; settings: approximately 10 d
Text: as §1

[6] = tested on: pigweed (Amaranthus retroflexus); experiment: Test A postemergence, pigweed; settings: approximately 10 d
Text: as §1

[7] = tested on: ragweed (common ragweed, Ambrosia elatior); experiment: Test A postemergence, ragweed; settings: approximately 10 d
Text: as §1

[8] = tested on: ryegrass, Italian (Italian ryegrass, Lolium multiflorum); experiment: Test A postemergence, Italian ryegrass; settings: approximately 10 d
Text: as §1

[9] = tested on: wheat (Triticum aestivum); experiment: Test A postemergence, wheat; settings: approximately 10 d
Text: as §1

[10] = tested on: barnyardgrass (Echinochloa crus-galli); experiment: Test A preemergence, barnyardgrass; settings: approximately 10 d
Text: as §1

Foxtail, Giant [11] = experiment: Test A preemergence, giant foxtail; settings: approximately 10 d
kochia (Kochia scoparia) [12] = experiment: Test A preemergence, kochia; settings: approximately 10 d
Text: as §1

[13] = tested on: pigweed (Amaranthus retroflexus); experiment: Test A preemergence, pigweed; settings: approximately 10 d
Text: as §1

[14] = tested on: ragweed (common ragweed, Ambrosia elatior); experiment: Test A preemergence, ragweed; settings: approximately 10 d
Text: as §1

[15] = tested on: ryegrass, Italian (Italian ryegrass, Lolium multiflorum); experiment: Test A preemergence, Italian ryegrass; settings: approximately 10 d
Text: as §1

[16] = tested on: barnyardgrass (Echinochloa crus-galli); experiment: Test B flooded paddy test, barnyardgrass; settings: 250 g ai/ha, Flood (paddy water), 13 to 15 d
Description: (§2) Plant species in the flooded paddy test selected from rice (Oryza sativa), sedge, umbrella (small-flower umbrella sedge, Cyperus difformis), ducksalad (Heteranthera limosa), and barnyardgrass (Echinochloa crus-galli) were grown to the 2-leaf stage for testing. At time of treatment, test pots were flooded to 3 cm above the soil surface, treated by application of test compounds directly to the paddy water, and then maintained at that water depth for the duration of the test. Treated plants and controls were maintained in a greenhouse for 13 to 15 d, after which time all species were compared to controls and visually evaluated. Plant response ratings, summarized in Table B, are based on a scale of 0 to 100 where 0 is no effect and 100 is complete control. A dash (-) response means no test result.

[17] = tested on: ducksalad (Heteranthera limosa); experiment: Test B flooded paddy test, ducksalad; settings: 250 g ai/ha, Flood (paddy water), 13 to 15 d
Description: as §2

rice (Oryza sativa) = experiment: Test B flooded paddy test, rice; settings: 250 g ai/ha, Flood (paddy water), 13 to 15 d
Description: as §2

[18] = tested on: sedge, umbrella (small-flower umbrella sedge, Cyperus difformis); experiment: Test B flooded paddy test, umbrella sedge; settings: 250 g ai/ha, Flood (paddy water), 13 to 15 d
Description: as §2

## CN1C[C@H](c2ccc(C(F)(F)F)cc2)[C@@H](C(=O)Nc2cccc(F)c2F)C1=NN1CCOCC1 (relative stereo) [Compound 7]
[1]; 31 g ai/ha
  Plant response rating (0 to 100 scale, 0 is no effect, 100 is complete control): 0
[1]; 125 g ai/ha
  Plant response rating (0 to 100 scale, 0 is no effect, 100 is complete control): 50
[2]; 31 g ai/ha
  Plant response rating (0 to 100 scale, 0 is no effect, 100 is complete control): 30
[2]; 125 g ai/ha
  Plant response rating (0 to 100 scale, 0 is no effect, 100 is complete control): 30
Corn (Zea mays); 31 g ai/ha
  Plant response rating (0 to 100 scale, 0 is no effect, 100 is complete control): 0
Corn (Zea mays); 125 g ai/ha
  Plant response rating (0 to 100 scale, 0 is no effect, 100 is complete control): 0
Foxtail, Giant [3]; 31 g ai/ha
  Plant response rating (0 to 100 scale, 0 is no effect, 100 is complete control): 0
Foxtail, Giant [3]; 125 g ai/ha
  Plant response rating (0 to 100 scale, 0 is no effect, 100 is complete control): 50
[4]; 31 g ai/ha
  Plant response rating (0 to 100 scale, 0 is no effect, 100 is complete control): 60
[4]; 125 g ai/ha
  Plant response rating (0 to 100 scale, 0 is no effect, 100 is complete control): 70
Kochia (Kochia scoparia) [5]; 31 g ai/ha
  Plant response rating (0 to 100 scale, 0 is no effect, 100 is complete control): 0
Kochia (Kochia scoparia) [5]; 125 g ai/ha
  Plant response rating (0 to 100 scale, 0 is no effect, 100 is complete control): 60
[6]; 31 g ai/ha
  Plant response rating (0 to 100 scale, 0 is no effect, 100 is complete control): 0
[6]; 125 g ai/ha
  Plant response rating (0 to 100 scale, 0 is no effect, 100 is complete control): 60
[7]; 31 g ai/ha
  Plant response rating (0 to 100 scale, 0 is no effect, 100 is complete control): 0
[7]; 125 g ai/ha
  Plant response rating (0 to 100 scale, 0 is no effect, 100 is complete control): 50
[8]; 31 g ai/ha
  Plant response rating (0 to 100 scale, 0 is no effect, 100 is complete control): 10
[8]; 125 g ai/ha
  Plant response rating (0 to 100 scale, 0 is no effect, 100 is complete control): 30
[9]; 31 g ai/ha
  Plant response rating (0 to 100 scale, 0 is no effect, 100 is complete control): 0
[9]; 125 g ai/ha
  Plant response rating (0 to 100 scale, 0 is no effect, 100 is complete control): 10
[10]; 31 g ai/ha
  Plant response rating (0 to 100 scale, 0 is no effect, 100 is complete control): 10
[10]; 125 g ai/ha
  Plant response rating (0 to 100 scale, 0 is no effect, 100 is complete control): 50
Foxtail, Giant [11]; 31 g ai/ha
  Plant response rating (0 to 100 scale, 0 is no effect, 100 is complete control): 50
Foxtail, Giant [11]; 125 g ai/ha
  Plant response rating (0 to 100 scale, 0 is no effect, 100 is complete control): 90
Kochia (Kochia scoparia) [12]; 31 g ai/ha
  Plant response rating (0 to 100 scale, 0 is no effect, 100 is complete control): 0
Kochia (Kochia scoparia) [12]; 125 g ai/ha
  Plant response rating (0 to 100 scale, 0 is no effect, 100 is complete control): 20
[13]; 31 g ai/ha
  Plant response rating (0 to 100 scale, 0 is no effect, 100 is complete control): 0
[13]; 125 g ai/ha
  Plant response rating (0 to 100 scale, 0 is no effect, 100 is complete control): 10
[14]; 31 g ai/ha
  Plant response rating (0 to 100 scale, 0 is no effect, 100 is complete control): 0
[14]; 125 g ai/ha
  Plant response rating (0 to 100 scale, 0 is no effect, 100 is complete control): 0
[15]; 31 g ai/ha
  Plant response rating (0 to 100 scale, 0 is no effect, 100 is complete control): 0
[15]; 125 g ai/ha
  Plant response rating (0 to 100 scale, 0 is no effect, 100 is complete control): 0
[16]
  Plant response rating (scale of 0 to 100, 0 is no effect, 100 is complete control): 10
[17]
  Plant response rating (scale of 0 to 100, 0 is no effect, 100 is complete control): 45
Rice (Oryza sativa)
  Plant response rating (scale of 0 to 100, 0 is no effect, 100 is complete control): 0
[18]
  Plant response rating (scale of 0 to 100, 0 is no effect, 100 is complete control): 0
